From US20070258899A1, “Diagnostic and therapeutic agents” (KARYON-CTT LTD, priority 2006, published 2007)
Starred links: 1 amine or outer side, 2 acyl side, 3 side chain; linkers in the order of their positions; H or OH if unused. Positions of bridges follow the written chain, without caps; N, C: chain ends. Non-standard residues stand in square brackets, D forms with d. Residues, ends and D or L forms follow the SMILES beside them. No end group written: not given here. Cysteamide = C(CS[*:3])N[*:1]; AEEEA = NCCOCCOCCOCC(=O)O

Assays:
[1] = system: HSC-3 oral cancer cell line; experiment: Cell binding assay to immobilized targeting agents; type: cell-based, human; settings: wells coated at 30 μg/ml, 75000 cells, 30 minutes at 37° C., MTT detection
Method: The human oral squamous cell carcinoma line HSC-3, called herein “HSC-3” (JCRB Cell Bank 0623, National Institute of Health Sciences, Japan) was cultivated in 1:1 DMEM and Ham's F 12 medium containing 10% FBS, 1% penicillin/streptomycin, L-glutamate and sodium pyruvate and 0.4 ng/ml hydrocortisone.
(§1) Preparation of plates for assays. Wells of Reacti-Bind Maleimide activated clear strip plate (Pierce, Prod#. 15150) were coated with targeting agents of this invention at a concentration of 30 μg/ml. The incubation was carried out of overnight at 20° C. The binding buffer containing unbound peptide was removed from the wells.
(§2) The wells were blocked with blocking buffer (0.5% BSA, 0.05% Tween20 in phosphate buffer saline (PBS). PBS was prepared as follows: 40 g of NaCl, 1 g of KCl, 7 g of Na2HPO4×2H2O and 1 g of KH2PO4 were dissolved in 1000 ml of deionized H2O. Blank wells as controls were prepared by treating empty wells with blocking buffer. The plates were incubated 1 hour 30 min at 20° C. After incubation the plate was washed three times with PBS, pH 7.4.
(§3) Cell binding assay. 75000 cells in volume of 150 μl of medium were added into coated wells and were incubated for 30 minutes at 37° C. After cell binding, the wells were washed with PBS for 30 minutes. […] On following day the absorbance of plate was measured at 560 nm with ELISA-reader (ThermoLabsystems, Multiskan EX). […]

[2] = system: mouse fibroblast cell line NIH3T3; experiment: Cell binding assay to immobilized targeting agents (control cell line); type: cell-based; settings: wells coated at 30 μg/ml, 75000 cells, 30 minutes at 37° C., MTT detection
Method: The mouse fibroblast line NIH3T3, called herein also “NIH3T3”, has been described previously by Koga et al. in Gann, 1979, 70: 585-591. The cell line was cultured in DMEM medium adjusted to contain 2 mM L-glutamine, 1% penicillin/streptomycin, and 10% fetal bovine serum.
as §1, §2, §3

[3] = system: HCT-15-LM1 cell line; experiment: Cell binding assay to immobilized targeting agents; type: cell-based, human; settings: wells coated at 30 μg/ml, 75000 cells, 30 minutes at 37° C., MTT detection
From the text: The colorectal cancer cell line HCT-15-LM1 was developed as follows. The cell culture was started with cancer cells from lung metastases which had developed after injection of human colorectal cancer HCT-15 cells into the bloodstream of a mouse. The inoculation procedure was then repeated with HCT-15-LM1 cells leading to the establishment of another metastatic cell line, HCT-15-LM2.
as §1, §2
Cell binding assay. 75000 cells in volume of 150 μl of medium were added into coated wells and were incubated for 30 minutes at 37° C. […] On following day the absorbance of plate was measured at 560 nm with ELISA-reader (ThermoLabsystems, Multiskan EX). […]

[4] = system: C8161T melanoma cell line; experiment: Cell binding assay to immobilized targeting agents; type: cell-based, human; settings: wells coated at 30 μg/ml, 75000 cells, 30 minutes at 37° C., MTT detection
Method: The human melanoma cell line C8161 has been described previously by Welch et al. in Int. J. Cancer, 1991, 47: 227-237. A more metastatic cell line C8161T, called herein also “C8161T”, was developed by culturing cells from a subcutaneous melanoma tumor developed after inoculation of C8161 melanoma cells on the flank of a nude mouse. The cell line was cultured in DMEM medium adjusted to contain 2 mM L-glutamine, 1% penicillin/streptomycin, and 10% fetal bovine serum.
as §1, §2
Cell binding assay. […] On following day the absorbance of plate was measured at 560 nm with ELISA-reader (ThermoLabsystems, Multiskan EX). […]

[5] = system: murine endothelial cell line SVEC4-10; experiment: Cell binding assay to immobilized targeting agents (control cell line); type: cell-based, mouse; settings: control cell line SVEC4-10; wells coated at 30 μg/ml; 75000 cells, 30 minutes at 37° C.; MTT detection
Method: The mouse vascular endothelial cell line SVEC4-10, called herein also “SVEC4-10”, has been described previously by O'Connell et al. in J. Immunol., 1990, 144: 521-525. The cell line was cultured in DMEM medium adjusted to contain 2 mM L-glutamine, 1% penicillin/streptomycin, and 10% fetal bovine serum.
as §1, §2, §3

[6] = system: HCT-15 cell line; experiment: Cell binding assay to immobilized targeting agents; type: cell-based, human; settings: wells coated at 30 μg/ml, 75000 cells, 30 minutes at 37° C., MTT detection
Method: The human colorectal cancer HCT-15 cell line (ATCC: CCL-225), called herein also “HCT-15”, was cultured in RPMI 1640 medium with 2 mM L-glutamine adjusted to contain 1.5 g/L sodium bicarbonate, 4.5 g/L glucose, 10 mM HEPES, and 1.0 mM sodium pyruvate, 1% penicillin/streptomycin, 10% fetal bovine serum.
as §1, §2, §3

[7] = system: lung metastases of colorectal cancer patients; experiment: Bio-panning of phage display library on clinical tumor samples; type: binding, human; settings: phage-displayed CX7C library; ex vivo panning round three
From the text: Phage display library. Standard procedures according to Smith and Scott (ibid.) were used. Phage display library used for screening of clinical samples was cloned in fUSE5 vector and was of the cyclic structure CX7C. The E. coli strain K91kan was used as host for phage amplification.
Phage display on clinical tumor samples. Tissue samples were surgically removed from lung metastases of colorectal cancer patients. Part of the sample was taken for pathological examination, rest was placed in ice cold DMEM-PI (Dulbecco's medium containing protease inhibitors PI; 10 mM PMSF (Phenyl-methyl-sulphonyl-fluoride), Aprotinin (10 mg/ml) Leupeptin (10 mg/ml)). Tissue samples were minced with a razor blade in a small cell culture plate in 1 ml of DMEM containing protease inhibitors. The samples were transferred to an eppendorf tube and washed with 1 ml DMEM-PI.
Samples were centrifuged at 5000 rpm for 4 min and were then incubated with […] transducing units of phage in 1 ml DMEM-PI at 25° C. for 15 min.
1 ml K91kan bacteria, OD600: 1-1.5, in LB containing 100 μg/ml kanamycin (kan) were infected with the washed pellet containing selectively attached phage particles at 25° C. for 25 min. […]
Then the bacteria were pelleted at 5000 rpm for 15 min. […] For the next rounds of bio-panning of clinical samples the titre of the TBS phage stock was determined as described above. […]

[8] = system: Athymic nude mice; experiment: In vivo toxicity study; settings: 1 mg i.v. into tail vein; observed 30 min after injection and 15 min on the following day
Method: 1 mg of targeting unit HP203 (described in Example 2) was injected i.v. into the tail vein of three Athymic nude mice in a volume of 100 μl of sterile physiological saline. The behavior of mice was observed during 30 min right after injection and during 15 min on the following day (comparison to non-injected mouse).

[9] = system: LoVo cell line; experiment: Cytotoxicity assay (MTT); type: cell-based, human
Method: […] The measurement of cell viability was done with MTT (Thiazolyl blue, Sigma M-5655) tetrazolium salt. MTT is cleaved to water-insoluble formazan dye by the “succinate-tetrazolium reductase” system, which is active only in viable cells. After formazan was solubilized by 10% SDS-0.01 M HCl, it was quantified in an ELISA spectrometer (ThermoLabsystems Multiscan EX) at 560 nm. CuSAO2 [trans-bis(salicylaldoximato)copper(II)] 7.5 μg/ml was used as a positive control for 100% toxicity.
Procedure. Cells were trypsinized from the cell culture dish (ø9 cm) with 1 ml of TE for 1-5 minutes and moved to a 50 ml Falcon tube. After this the volume was increased to 20 ml of cell line specific medium and cells were transferred to a Bürker chamber and diluted in medium to a concentration of 2500-3500 cells/100 μl depending on cell line. […]
Next day 40 μl of medium was removed from all wells except from the ones with only medium and one column with cells. […] The next day the cell morphology was analyzed with a microscope. […]
The next day, the MTT assay described above was performed. The viable count (v.c.) was calculated as: [formula]

Row | Peptides selectively binding to lung tumors (enriched in bio-panning) [7] | Molecule | binding of cells to immobilized targeting agent (absorbance at 560 nm) [1] | binding of cells to immobilized targeting agent (absorbance at 560 nm) [2] | binding of cells to immobilized targeting agent (absorbance at 560 nm) [3] | binding of cells to immobilized targeting agent (absorbance at 560 nm) [4] | binding of cells to immobilized targeting agent (absorbance at 560 nm) [5] | binding of cells to immobilized targeting agent (absorbance at 560 nm) [6] | other results
1 | – | Ac-aYGFVWGEE-(Teg-Glu)2-EAT [MJ012] | bind selectively | significantly less binding | bind selectively | bind selectively | significantly less binding | bind selectively | –
2 | selectively binding | CYGFVWGEC (disulfide 1-9 (inferred)) | – | – | – | – | – | – | –
3 | – | a*YGFVWGEE*-(Teg-Glu)2-EAT ([dA]YGFVWGEE[AEEEA]E[AEEEA]E-Cysteamide; lactam N-9; not fully specified; printed as a*YGFVWGEE*-(Teg-Glu)2-EAT) [MJ013] | bind selectively | significantly less binding | bind selectively | bind selectively | significantly less binding | bind selectively | –
4 | – | CC(C)C[C@@H]1NC(=O)[C@H](Cc2ccccc2)NC(=O)CNC(=O)[C@H](Cc2ccc(O)cc2)NC(=O)[C@@H](NC(=O)[C@H](C)NC(=O)CNC(=O)[C@H](CC(=O)O)NC(=O)[C@H](C)N)CSSC[C@@H](C(=O)NCCOCCOCCOCC(=O)NCCOCCOCCOCC(=O)NCCOCCOCCOCC(N)=O)NC(=O)[C@H](CCC(N)=O)NC(=O)CNC(=O)[C@H](Cc2c[nH]c3ccccc23)NC1=O [HP203] (H-ADGACYGFLWGQC[AEEEA][AEEEA][AEEEA]-NH2; disulfide 5-13; N-terminus assumed) | – | – | – | – | – | – | toxic effect on mice (behavior observed) [8]: did not have any toxic effect; toxicity for the tested cell line (viable count, MTT) ([9]; 5 μg/ml and 138 μg/ml, 24 h, 48 h, 72 h): non-toxic
5 | selectively binding | CYGFLWGQC | – | – | – | – | – | – | –
6 | – | [Cu+2].[O-]c1ccccc1C=NO.[O-]c1ccccc1C=NO [CuSAO2, trans-bis(salicylaldoximato)copper(II), reference compound] | – | – | – | – | – | – | cell killing ([9]; 7.5 μg/ml, positive control): 100%
